Results from US7139415B2, “Robotic microscopy systems” (The Regents of the University of California, priority 2001, dated 2006).

Legend:
GFP transfected neurons = assay type: cell-based; conditions: in the presence of extracellular EtHD
Experimental: (§1) If the “loss” of GFP corresponded to the death of a neuron, that the loss of GFP positive neurons could be quantified over time as a measure of neuronal survival. To test whether the “loss” of GFP corresponded to the death of a neuron, the loss of GFP in transfected neurons was measured at the same time as the loss of membrane integrity using a membrane impermeant nuclear dye, ethidium homodimer (EtHD). EtHD staining of cell nuclei is taken as a positive sign of death in the widely used “LIVE-DEAD” assay.
FIG. 16A is a panel of photographs exemplifying application of an automated imaging system to the study of neuronal survival, and showing that loss of GFP fluorescence correlates with a loss of membrane integrity and nuclear staining with ethidium homodimer. […] Between 60 (not shown) and 75 minutes, GFP fluorescence is abruptly lost from one neuron and its nucleus stains positively for EtHD. Later, the other transfected neuron in the image loses GFP fluorescence and stains positively for EtHD. […] Thus, overall, the GFP fluorescence of particular neurons disappeared eventually but abruptly, and at that same moment, the nuclei of those neurons stained positively with EtHD (FIG. 16A). Thus, the loss of GFP fluorescence correlated well with one widely accepted measure of cell death.

[1] = system: neurons transfected with GFP; test: Automated imaging of survival of GFP-transfected neurons; assay type: cell-based; conditions: kainate added 24 or 76 hours after transfection, compared with untreated sister culture
Experimental: as §1
Next, expression of the transfection marker GFP was tested for its affect on survival. FIG. 16E is a graph showing the results of a parallel experiment, in which the survival of transfected neurons in two sister cultures was compared. One culture was imaged once at the end of the experiment (hatched bar) and the other was imaged both a day after transfection and at the end of the experiment (solid bars). The two cultures show nearly identical survival. Finally, if this approach is a valid way to measure neuronal survival, it should be able to detect the effects of molecules known to regulate survival. First, the ability to detect the neurotoxicity of kainic acid was tested. […]
FIG. 16C is a graph showing survival of transfected neurons in three sister cultures was monitored and compared. […]

Structure (SMILES): C=C(C)[C@H]1CN[C@H](C(=O)O)[C@H]1CC(=O)O [kainic acid]
- morphology of GFP transfected neurons in response to the neurotoxin (GFP transfected neurons): cell bodies of GFP transfected neurons rounded and swelled and their neurites began to retract
- neuronal survival (number of surviving GFP positive neurons) [1]: significant decrease in neuronal survival
